Measurements from ChEMBL document CHEMBL4007467, “Effects of 6-paradol, an unsaturated ketone from gingers, on cytochrome P450-mediated drug metabolism” (Bioorg Med Chem Lett, 2017).

Key:
Format in all cases: ADME
[1] = target: T1, CYP2A6 (Homo sapiens, UniProt P11509); assay: Inhibition of CYP2A6 in human liver microsomes assessed as enzyme-mediated metabolite formation at 10 uM using coumarin as substrate incubated for 5 mins followed by NADPH addition measured after 30 mins by LC-MS/MS analysis relative to control; parameters: scale not given: the % may be the effect or the level left; conditions: probe coumarin, read-out: Activity
T1 sequence (P11509 whole entry): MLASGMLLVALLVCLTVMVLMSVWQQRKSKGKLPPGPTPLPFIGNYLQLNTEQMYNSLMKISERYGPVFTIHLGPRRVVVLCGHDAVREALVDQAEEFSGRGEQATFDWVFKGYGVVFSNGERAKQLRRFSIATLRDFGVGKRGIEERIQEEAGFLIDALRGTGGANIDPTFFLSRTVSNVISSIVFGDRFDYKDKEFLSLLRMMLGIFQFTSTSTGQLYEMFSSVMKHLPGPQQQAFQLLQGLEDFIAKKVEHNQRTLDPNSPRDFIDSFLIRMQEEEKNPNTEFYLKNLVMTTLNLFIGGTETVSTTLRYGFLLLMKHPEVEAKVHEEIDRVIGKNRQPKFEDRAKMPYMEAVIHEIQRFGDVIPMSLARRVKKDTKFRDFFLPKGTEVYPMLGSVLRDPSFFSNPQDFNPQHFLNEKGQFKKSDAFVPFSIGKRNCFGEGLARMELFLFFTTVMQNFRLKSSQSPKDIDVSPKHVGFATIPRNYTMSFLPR

[2] = target: T2, CYP2B6 (Homo sapiens, UniProt P20813); assay: Inhibition of CYP2B6 in human liver microsomes assessed as enzyme-mediated metabolite formation at 0.1 uM using bupropion as substrate incubated for 5 mins followed by NADPH addition measured after 30 mins by LC-MS/MS analysis relative to control; parameters: scale not given: the % may be the effect or the level left; conditions: probe bupropion, read-out: Activity
T2 sequence (P20813 whole entry): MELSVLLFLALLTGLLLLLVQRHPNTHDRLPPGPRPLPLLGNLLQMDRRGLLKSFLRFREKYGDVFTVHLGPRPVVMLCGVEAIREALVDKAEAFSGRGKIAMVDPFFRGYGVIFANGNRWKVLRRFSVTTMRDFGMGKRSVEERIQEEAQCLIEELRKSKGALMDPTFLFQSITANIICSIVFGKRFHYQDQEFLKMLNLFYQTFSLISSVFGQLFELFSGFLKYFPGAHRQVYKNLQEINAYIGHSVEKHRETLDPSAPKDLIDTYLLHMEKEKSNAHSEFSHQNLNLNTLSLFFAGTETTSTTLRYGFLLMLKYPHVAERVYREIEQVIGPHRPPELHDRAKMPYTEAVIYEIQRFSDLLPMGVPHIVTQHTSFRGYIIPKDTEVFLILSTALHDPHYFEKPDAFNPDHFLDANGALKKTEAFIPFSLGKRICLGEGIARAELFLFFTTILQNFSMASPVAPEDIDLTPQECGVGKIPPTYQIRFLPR

[3] = target: T3, CYP2C9 (Homo sapiens, UniProt P11712); assay: Inhibition of CYP2C9 in human liver microsomes assessed as enzyme-mediated metabolite formation at 1 uM using diclofenac as substrate incubated for 5 mins followed by NADPH addition measured after 30 mins by LC-MS/MS analysis relative to control; parameters: scale not given: the % may be the effect or the level left; conditions: probe diclofenac, read-out: Activity
[4] = target: T3, CYP2C9; assay: Inhibition of CYP2C9 in human liver microsomes assessed as enzyme-mediated metabolite formation at 3 uM using diclofenac as substrate incubated for 5 mins followed by NADPH addition measured after 30 mins by LC-MS/MS analysis relative to control; parameters: scale not given: the % may be the effect or the level left; conditions: probe diclofenac, read-out: Activity
[5] = target: T4, CYP2D6 (Homo sapiens, UniProt P10635); assay: Inhibition of CYP2D6 in human liver microsomes assessed as enzyme-mediated metabolite formation at 1 uM using dextromethorphan as substrate incubated for 5 mins followed by NADPH addition measured after 30 mins by LC-MS/MS analysis relative to control; parameters: scale not given: the % may be the effect or the level left; conditions: probe dextromethorphan, read-out: Activity
[6] = target: T4, CYP2D6; assay: Inhibition of CYP2D6 in human liver microsomes assessed as enzyme-mediated metabolite formation at 3 uM using dextromethorphan as substrate incubated for 5 mins followed by NADPH addition measured after 30 mins by LC-MS/MS analysis relative to control; parameters: scale not given: the % may be the effect or the level left; conditions: probe dextromethorphan, read-out: Activity
[7] = target: T4, CYP2D6; assay: Inhibition of CYP2D6 in human liver microsomes assessed as enzyme-mediated metabolite formation at 30 uM using dextromethorphan as substrate incubated for 5 mins followed by NADPH addition measured after 30 mins by LC-MS/MS analysis relative to control; parameters: scale not given: the % may be the effect or the level left; conditions: probe dextromethorphan, read-out: Activity
[8] = target: T5, CYP3A4 (Homo sapiens, UniProt P08684); assay: Inhibition of CYP3A4 in human liver microsomes assessed as enzyme-mediated metabolite formation at 0.3 uM using midazolam as substrate incubated for 5 mins followed by NADPH addition measured after 30 mins by LC-MS/MS analysis relative to control; parameters: scale not given: the % may be the effect or the level left; conditions: probe midazolam, read-out: Activity
[9] = target: T1, CYP2A6; assay: Inhibition of CYP2A6 in human liver microsomes assessed as enzyme-mediated metabolite formation at 1 uM using coumarin as substrate preincubated for 20 mins followed by substrate addition measured after 30 mins in presence of NADPH by LC-MS/MS analysis relative to control; parameters: scale not given: the % may be the effect or the level left; conditions: probe coumarin, read-out: Activity
[10] = target: T2, CYP2B6; assay: Inhibition of CYP2B6 in human liver microsomes assessed as enzyme-mediated metabolite formation at 0.1 uM using bupropion as substrate preincubated for 20 mins followed by substrate addition measured after 30 mins in presence of NADPH by LC-MS/MS analysis relative to control; parameters: scale not given: the % may be the effect or the level left; conditions: probe bupropion, read-out: Activity
[11] = target: CYP2C19 (Homo sapiens, UniProt P33261); assay: Inhibition of CYP2C19 in human liver microsomes assessed as enzyme-mediated metabolite formation at 1 uM using (S)-mephenytoin as substrate preincubated for 20 mins followed by substrate addition measured after 30 mins in presence of NADPH by LC-MS/MS analysis relative to control; parameters: scale not given: the % may be the effect or the level left; conditions: probe (S)-mephenytoin, read-out: Activity
[12] = target: T4, CYP2D6; assay: Inhibition of CYP2D6 in human liver microsomes assessed as enzyme-mediated metabolite formation at 1 uM using dextromethorphan as substrate preincubated for 20 mins followed by substrate addition measured after 30 mins in presence of NADPH by LC-MS/MS analysis relative to control; parameters: scale not given: the % may be the effect or the level left; conditions: probe dextromethorphan, read-out: Activity
[13] = target: T4, CYP2D6; assay: Inhibition of CYP2D6 in human liver microsomes assessed as enzyme-mediated metabolite formation at 3 uM using dextromethorphan as substrate preincubated for 20 mins followed by substrate addition measured after 30 mins in presence of NADPH by LC-MS/MS analysis relative to control; parameters: scale not given: the % may be the effect or the level left; conditions: probe dextromethorphan, read-out: Activity
[14] = target: T4, CYP2D6; assay: Inhibition of CYP2D6 in human liver microsomes assessed as enzyme-mediated metabolite formation at 30 uM using dextromethorphan as substrate preincubated for 20 mins followed by substrate addition measured after 30 mins in presence of NADPH by LC-MS/MS analysis relative to control; parameters: scale not given: the % may be the effect or the level left; conditions: probe dextromethorphan, read-out: Activity
[15] = target: T5, CYP3A4; assay: Inhibition of CYP3A4 in human liver microsomes assessed as enzyme-mediated metabolite formation at 0.3 uM using midazolam as substrate preincubated for 20 mins followed by substrate addition measured after 30 mins in presence of NADPH by LC-MS/MS analysis relative to control; parameters: scale not given: the % may be the effect or the level left; conditions: probe midazolam, read-out: Activity
[16] = target: T6, Cytochrome P450 2B6 (Homo sapiens, UniProt P20813); assay: Inhibition of human CYP2B6 using bupropion as substrate incubated for 5 mins followed by NADPH addition measured after 30 mins by LC-MS/MS analysis
T6 sequence (P20813 whole entry): T2 sequence (P20813 whole entry)

T4 sequence (P10635 whole entry): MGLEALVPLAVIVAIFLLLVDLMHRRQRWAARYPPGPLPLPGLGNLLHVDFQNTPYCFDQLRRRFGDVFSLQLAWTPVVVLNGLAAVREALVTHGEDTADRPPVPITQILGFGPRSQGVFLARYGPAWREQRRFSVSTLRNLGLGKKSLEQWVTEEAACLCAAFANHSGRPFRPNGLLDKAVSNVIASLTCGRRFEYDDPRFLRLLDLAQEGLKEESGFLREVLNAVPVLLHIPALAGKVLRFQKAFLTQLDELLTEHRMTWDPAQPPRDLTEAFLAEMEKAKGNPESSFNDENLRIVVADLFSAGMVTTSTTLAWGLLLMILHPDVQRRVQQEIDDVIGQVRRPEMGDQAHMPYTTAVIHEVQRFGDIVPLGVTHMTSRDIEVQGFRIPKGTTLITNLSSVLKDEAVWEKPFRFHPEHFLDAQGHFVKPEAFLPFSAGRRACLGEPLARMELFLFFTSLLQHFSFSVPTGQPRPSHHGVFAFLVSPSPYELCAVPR
T5 sequence (P08684 whole entry): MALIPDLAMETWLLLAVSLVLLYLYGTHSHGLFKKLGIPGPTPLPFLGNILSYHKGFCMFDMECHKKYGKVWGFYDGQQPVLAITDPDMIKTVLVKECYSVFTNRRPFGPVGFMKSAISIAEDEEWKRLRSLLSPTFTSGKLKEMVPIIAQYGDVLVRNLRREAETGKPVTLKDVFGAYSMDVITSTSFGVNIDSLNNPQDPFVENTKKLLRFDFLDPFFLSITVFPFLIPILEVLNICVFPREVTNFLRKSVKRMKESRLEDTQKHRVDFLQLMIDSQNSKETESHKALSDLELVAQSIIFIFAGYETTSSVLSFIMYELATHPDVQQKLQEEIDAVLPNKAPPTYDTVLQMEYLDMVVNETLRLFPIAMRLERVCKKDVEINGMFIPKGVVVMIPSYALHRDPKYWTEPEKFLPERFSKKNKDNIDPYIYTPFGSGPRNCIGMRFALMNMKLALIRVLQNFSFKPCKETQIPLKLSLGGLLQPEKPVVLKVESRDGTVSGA
T3 sequence (P11712 whole entry): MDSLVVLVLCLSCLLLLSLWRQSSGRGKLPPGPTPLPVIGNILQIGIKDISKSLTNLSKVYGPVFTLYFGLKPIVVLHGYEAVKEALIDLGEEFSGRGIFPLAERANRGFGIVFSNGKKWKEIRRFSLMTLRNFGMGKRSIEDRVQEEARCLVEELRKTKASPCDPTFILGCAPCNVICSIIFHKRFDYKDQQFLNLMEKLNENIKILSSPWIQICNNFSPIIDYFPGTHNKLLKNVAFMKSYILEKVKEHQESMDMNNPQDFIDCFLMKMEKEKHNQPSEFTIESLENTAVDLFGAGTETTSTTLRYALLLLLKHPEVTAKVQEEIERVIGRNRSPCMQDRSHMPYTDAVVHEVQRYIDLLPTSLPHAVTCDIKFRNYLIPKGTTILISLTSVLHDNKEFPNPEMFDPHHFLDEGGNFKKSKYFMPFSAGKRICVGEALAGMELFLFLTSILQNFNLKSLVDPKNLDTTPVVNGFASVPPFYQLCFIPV
Chain of CYP2C19 (P33261 whole entry): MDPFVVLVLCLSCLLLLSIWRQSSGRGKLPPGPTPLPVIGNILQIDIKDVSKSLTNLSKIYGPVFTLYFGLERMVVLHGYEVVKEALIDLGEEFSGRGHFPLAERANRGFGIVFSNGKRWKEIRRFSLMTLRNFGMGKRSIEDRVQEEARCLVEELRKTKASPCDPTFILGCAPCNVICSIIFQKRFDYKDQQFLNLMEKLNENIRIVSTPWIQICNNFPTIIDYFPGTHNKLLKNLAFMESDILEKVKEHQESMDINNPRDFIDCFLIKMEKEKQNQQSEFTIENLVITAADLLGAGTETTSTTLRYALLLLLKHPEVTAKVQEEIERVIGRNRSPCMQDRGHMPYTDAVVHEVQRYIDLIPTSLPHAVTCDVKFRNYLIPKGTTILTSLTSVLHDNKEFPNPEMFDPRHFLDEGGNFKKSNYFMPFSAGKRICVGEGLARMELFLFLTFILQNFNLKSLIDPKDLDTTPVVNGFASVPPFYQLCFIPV

**Q.** What does the source list for `CCCCCCCC(=O)CCc1ccc(O)c(OC)c1`?
**A.** activity at 0.5 h, 10 µM [1]: 81.5%; activity at 0.5 h, 0.1 µM [2]: 93.6%; activity at 0.5 h, 1 µM [3]: 76.6%; activity at 0.5 h, 3 µM [4]: 68.1%; activity at 0.5 h, 1 µM [5]: 75.9%; activity at 0.5 h, 3 µM [6]: 74.6%; activity at 0.5 h, 30 µM [7]: 53.8%; activity at 0.5 h, 0.3 µM [8]: 103%; activity at 0.5 h, 1 µM [9]: 102%; activity at 0.5 h, 0.1 µM [10]: 88.5%; activity at 0.5 h, 1 µM [11]: 72.1%; activity at 0.5 h, 1 µM [12]: 92.2%; activity at 0.5 h, 3 µM [13]: 103%; activity at 0.5 h, 30 µM [14]: 80.1%; activity at 0.5 h, 0.3 µM [15]: 88.9%; IC50 [16]: 6.2 µM; inhibition (INH) ([16]; human, 0.5 h): Dose-dependent effect
